The record followed here is patent US20100119620A1, “SUPPRESSING MICROBIAL GROWTH IN PULP AND PAPER” (priority 2006, published 2010).

The nature of data set [1]: Halogen residuals (total and free) measured using DPD reagent after blending NaOCl with urea/NaOH. In kind it is physicochemical. The procedure: We blended 5.0 mL NaOCl (3% as Cl2 in water) with 5.0 mL of an aqueous solution of urea and sodium hydroxide (0.5M urea in 5% NaOH). To achieve a 2:1 molar ratio of chlorine to urea we blended 5.0 mL NaOCl (3% as Cl2 in water) with 5.0 mL of an aqueous solution of urea and sodium hydroxide (0.25M urea in 5% NaOH). Halogen residuals were measured using DPD reagent, and were recorded 3 minutes after mixing with the reagent.
Because of the higher yield, less halogen is required to achieve the desired anti-microbial effect under these test conditions. […] The advantages of increased yield and improved anti-microbial activity are shown in Example 2.

Data set [2] relates to Sphaerotilus natans (ATCC 1529). Description: Mean Biocidal Concentration for 100% kill of filamentous test isolate in buffered water (pH 7.2). The data set is classed as cell-based. The procedure: Two biocide solutions were evaluated and included NaOCl and NaOCl mixed with urea at a 1:1 molar ratio. The unstabilized NaOCl solution was 3% as Cl2 in water. To prepare the stabilized chlorine solution we blended 5.0 mL NaOCl (3% as Cl2 in water) with 5.0 mL of an aqueous solution of urea and sodium hydroxide (0.5M urea in 5% NaOH). In the case of the stabilized chlorine the NaOCl and urea were mixed prior to introduction to buffered water (pH 7.2) inoculated with approximately 1×10^5 bacterial filaments/mL of the filamentous test isolate. The filamentous test isolate used in this evaluation was Sphaerotilus natans (ATCC 1529). The Mean Biocidal Concentration was identified as the test chlorine concentration in ppm of total chlorine (Cl2) required for 100% kill of the filamentous test isolate.

For data set [3], the system named is bacteria native to the process water sample. Description: Bacterial density in paper process water (coated groundwood mill, pH 7.9) dosed with halogen, with re-challenge. In kind it is cell-based. The procedure:
The unstabilized bleach solution was 3% as Cl2 in water. To prepare the stabilized chlorine solution we blended 5.0 mL NaOCl (3% as Cl2 in water) with 5.0 mL of an aqueous solution of urea and sodium hydroxide (0.5M urea in 5% NaOH). We then blended 5.0 mL NaOCl (3% as Cl2 in water) with 5.0 mL of an aqueous solution of urea and sodium hydroxide (0.25M urea in 5% NaOH). This yielded a 2:1 molar ratio of chlorine to urea.
Paper process water was collected from a mill in the Northeastern US producing coated groundwood printing and writing grades (pH 7.9). Samples were dosed with halogen and plated after one and four hours. Following the four-hour sampling, process water was challenged with 1% (volume/volume) of untreated process water and samples were plated again after 24 hours.

Setting [4] is: pH after mixing 9.8, recorded 3 minutes after mixing with DPD reagent.

For `[Na+].[O-]Cl` [NaOC1, sodium hypochlorite], the “Free Halogen (% Yield)” value in data set [1] (setting [4]), in data set [1] (pH after mixing 13.0) and in data set [1] (pH after mixing 13.5) was 100 % Yield each time. The “Total Halogen (% Yield)” value in data set [1] (setting [4]), in data set [1] (pH after mixing 13.0) and in data set [1] (pH after mixing 13.5) was 100 % Yield in each case. The “Mean Biocidal Concentration S. natans” value in data set [2] (contact time 0.5 hours), in data set [2] (contact time 1 hour), in data set [2] (contact time 3.5 hours) and in data set [2] (contact time 9 hours) was 5 ppm Total C12 each time. In addition, the “Bacterial Density” value in data set [3] (2.5 ppm Total C12, contact time 1 hour) is reported as 2 log 10 CFU/mL; in data set [3] (2.5 ppm Total C12, contact time 4 hours) it was 3.5 log 10 CFU/mL; in data set [3] (2.5 ppm Total C12, contact time 24 hours, after challenge with 1% (v/v) untreated process water at 4 hours), 7.4 log 10 CFU/mL; in data set [3] (10 ppm Total C12, contact time 1 hour), 2 log 10 CFU/mL; in data set [3] (10 ppm Total C12, contact time 4 hours), 2 log 10 CFU/mL; in data set [3] (10 ppm Total C12, contact time 24 hours, after challenge with 1% (v/v) untreated process water at 4 hours) it was 7.3 log 10 CFU/mL.
